Calls of active or inactive are those of the source. The rule behind the calls is not given here.

The record followed here is ChEMBL document CHEMBL6153118, “Structure Optimization of Natural Product Catalpol to Obtain Novel and Potent Analogs against Heart Failure” (J Med Chem, 2025).

The subject of data set [1] is H9c2. In words: Cytoprotective activity against OGD-induced myocardial ischemic injury in rat H9c2 cells assessed as cell viability at 50 uM preincubated for 12 hrs followed by exposure to OGD condition for 3 hrs by CCK8 assay (reference value: 49.23 to 50.05 %). Format: functional. The conditions noted are these: time 15 hrs, read-out: Activity.
Data set [2] has as its system H9c2. In words: Cytoprotective activity against OGD-induced myocardial ischemic injury in rat H9c2 cells assessed as cell viability at 5 uM preincubated for 12 hrs followed by exposure to OGD condition for 3 hrs by CCK8 assay (reference value: 49.23 to 50.05 %). Format: functional. The conditions noted are these: time 15 hrs, read-out: Activity.
Data set [3] can be described thus: Metabolic stability in mouse liver microsomes assessed as half life measured for 5 to 60 mins in presence of NADPH by LC-MS/MS analysis. Format: ADME, Microsome. The conditions noted are these: time 5-60 min.
Data set [4] can be described thus: Metabolic stability in human liver microsomes assessed as intrinsic clearance measured for 5 to 60 mins in presence of NADPH by LC-MS/MS analysis. Format: ADME, Microsome. Conditions: time 5-60 min, read-out: CLH.
A short description of data set [5]: Metabolic stability in mouse liver microsomes assessed as intrinsic clearance measured for 5 to 60 mins in presence of NADPH by LC-MS/MS analysis. Format: ADME, Microsome. The conditions noted are these: time 5-60 min, read-out: CLH.
In data set [6] the test system is H9c2. The experiment in a line: Cytoprotective activity against OGD-induced myocardial ischemic injury in rat H9c2 cells assessed as cell viability at 100 uM preincubated for 12 hrs followed by exposure to OGD condition for 3 hrs by CCK8 assay (reference value: 49.23 to 50.05 %). The conditions noted are these: time 15 hrs, read-out: Activity. Format: functional.

In data set [7] the test system is Mus musculus. The experiment in a line: Cardioprotective activity in ISO-induced heart failure C57BL/6J mouse assessed as […] in fractional shortening in heart at 20 mg/kg/day, po for 14 days by echocardiography. Conditions: time 14.0 day. Format: functional, organism-based.
The subject of data set [8] is H9c2. In words: Cytoprotective activity against OGD-induced myocardial ischemic injury in rat H9c2 cells assessed as decrease in ROS level at 5 to 50 uM preincubated for 12 hrs followed by exposure to OGD condition for 3 hrs by DCFH-DA probe based analysis. Format: functional, cell-based. Conditions: dose 5-50 µM, time 15.0 hrs.
Data set [9] concerns H9c2. In words: Cytoprotective activity against OGD-induced myocardial ischemic injury in rat H9c2 cells assessed as decrease in LDH level at 5 to 50 uM preincubated for 12 hrs followed by exposure to OGD condition for 3 hrs by UV absorption analysis. Format: functional, cell-based. Conditions: dose 5-50 µM, time 15.0 hrs.
The subject of data set [10] is Mus musculus. The experiment in a line: Inhibition of cardiomyocyte hypertrophy in ISO-induced heart failure C57BL/6J mouse at 20 mg/kg/day, po for 14 days. Format: functional, organism-based. The conditions noted are these: time 14.0 day.
The test system of data set [11] is Mus musculus. In words: Cardioprotective activity in ISO-induced heart failure C57BL/6J mouse assessed as […] in ejection fraction in heart at 20 mg/kg/day, po for 14 days by echocardiography. The conditions noted are these: time 14.0 day. Format: functional, organism-based.
Data set [12] concerns Cardiac muscle cell. In words: Cytoprotective activity against OGD-induced myocardial ischemic injury in neonatal rat primary cardiomyocytes assessed as decrease in cellular damage preincubated for 12 hrs followed by exposure to OGD condition for 3 hrs. Format: functional, cell-based. Conditions: time 15.0 hrs.
The test system of data set [13] is H9c2. The experiment in a line: Cytoprotective activity against OGD-induced myocardial ischemic injury in rat H9c2 cells assessed as decrease in cell death at 5 to 50 uM preincubated for 12 hrs followed by exposure to OGD condition for 3 hrs by crystal violet staining based analysis. Format: functional. The conditions noted are these: dose 5-50 µM, time 15.0 hrs.

The test system of data set [14] is Cardiac muscle cell. The experiment in a line: Cytoprotective activity against OGD-induced myocardial ischemic injury in neonatal rat primary cardiomyocytes assessed as decrease in cellular damage at 1 uM preincubated for 12 hrs followed by exposure to OGD condition for 3 hrs. Format: functional, cell-based. The conditions noted are these: time 15.0 hrs.

Turning to `OC[C@H]1O[C@@H](O[C@@H]2OC=C[C@H]3[C@H](O)[C@@H]4O[C@]4(COc4ccc(C5CCCC5)cc4)[C@@H]23)[C@H](O)[C@@H](O)[C@@H]1O`, the viability at 50 µM with H9c2 [1] stood at 60.8%. Further, in the data set with H9c2 [2], the viability at 5 µM came to 64.5%.
Turning to `O=C(O)Cc1ccccc1Nc1c(Cl)cccc1Cl` [DICLOFENAC], the half-life in data set [3] is 1.1 h. Further, the CLint scaled in data set [4] was found to be 202 mL/min/kg; in [5], 82.9 mL/min/kg.
In the case of `OC[C@H]1O[C@@H](O[C@@H]2OC=C[C@H]3[C@H](O)[C@@H]4O[C@]4(COc4ccc(-c5ccccc5)cc4)[C@@H]23)[C@H](O)[C@@H](O)[C@@H]1O`, in the data set on H9c2 [1], the viability at 50 µM worked out at 53.2%. Besides, the viability at 5 µM in the data set on H9c2 [2] turned out to be 60%.
The matching figures for `OC[C@H]1O[C@@H](O[C@@H]2OC=C[C@H]3[C@H](O)[C@@H]4O[C@]4(COc4ccc5c(c4)OCO5)[C@@H]23)[C@H](O)[C@@H](O)[C@@H]1O`: 60.7% and 59.6%.
Turning to `O=C(NCCO[N+](=O)[O-])c1cccnc1` [NICORANDIL], the viability at 100 µM in the data set with H9c2 [6] is 58.6%.
Regarding `O=C(NC[C@]12O[C@H]1[C@@H](O)[C@@H]1C=CO[C@@H](O[C@@H]3O[C@H](CO)[C@@H](O)[C@H](O)[C@H]3O)[C@@H]12)c1cccs1`, the viability at 50 µM in the data set with H9c2 [1] turned out to be 60.4%. Besides, the viability at 5 µM with H9c2 [2] was 54.1%.
The corresponding values for `COc1ccc(/C=C/C(=O)NC[C@]23O[C@H]2[C@@H](O)[C@@H]2C=CO[C@@H](O[C@@H]4O[C@H](CO)[C@@H](O)[C@H](O)[C@H]4O)[C@@H]23)cc1OC` are 56.7% and 56.6%.
The corresponding values for `COc1cc(OC[C@]23O[C@H]2[C@@H](O)[C@@H]2C=CO[C@@H](O[C@@H]4O[C@H](CO)[C@@H](O)[C@H](O)[C@H]4O)[C@@H]23)cc(OC)c1OC` are 55.1% and 63.9%.
Take `OC[C@H]1O[C@@H](O[C@@H]2OC=C[C@H]3[C@H](O)[C@@H]4O[C@]4(COc4cccc5c4CCCC5)[C@@H]23)[C@H](O)[C@@H](O)[C@@H]1O`: the viability at 50 µM in the data set on H9c2 [1] was found to be 55.5%. Moreover, the viability at 5 µM with H9c2 [2] is 54.4%.
The corresponding values for `O=C(NC[C@]12O[C@H]1[C@@H](O)[C@@H]1C=CO[C@@H](O[C@@H]3O[C@H](CO)[C@@H](O)[C@H](O)[C@H]3O)[C@@H]12)c1cncnc1` are 57.5% and 58%.
The matching figures for `O=C(NC[C@]12O[C@H]1[C@@H](O)[C@@H]1C=CO[C@@H](O[C@@H]3O[C@H](CO)[C@@H](O)[C@H](O)[C@H]3O)[C@@H]12)c1cccnc1`: 59.6% and 58.2%.
The corresponding values for `OC[C@H]1O[C@@H](O[C@@H]2OC=C[C@H]3[C@H](O)[C@@H]4O[C@]4(COc4ccc5ccoc5c4)[C@@H]23)[C@H](O)[C@@H](O)[C@@H]1O` are 57% and 56.7%.
Turning to `OC[C@H]1O[C@@H](O[C@@H]2OC=C[C@H]3[C@H](O)[C@@H]4O[C@]4(COc4ccc(F)cc4)[C@@H]23)[C@H](O)[C@@H](O)[C@@H]1O`, the viability at 50 µM with H9c2 [1] was determined as 64.6%. In addition, the viability at 5 µM in the data set with H9c2 [2] was 61.7%.
The corresponding values for `O=C(NC[C@]12O[C@H]1[C@@H](O)[C@@H]1C=CO[C@@H](O[C@@H]3O[C@H](CO)[C@@H](O)[C@H](O)[C@H]3O)[C@@H]12)c1ccco1` are 55.6% and 58.8%.
Regarding `O=C(NC[C@]12O[C@H]1[C@@H](O)[C@@H]1C=CO[C@@H](O[C@@H]3O[C@H](CO)[C@@H](O)[C@H](O)[C@H]3O)[C@@H]12)c1ccncc1`, the viability at 50 µM with H9c2 [1] came to 57.5%. Besides, the viability at 5 µM in the data set on H9c2 [2] was found to be 54.2%.
`OC[C@H]1O[C@@H](O[C@@H]2OC=C[C@H]3[C@H](O)[C@@H]4O[C@]4(CO)[C@@H]23)[C@H](O)[C@@H](O)[C@@H]1O` [CATALPOL]: the result with Mus musculus [7], in the data set with H9c2 [8], in the data set on H9c2 [9], with Mus musculus [11] and in the data set with Cardiac muscle cell [12] was Active. Also, the viability at 50 µM in the data set on H9c2 [1] is 50.7%. Moreover, the viability at 5 µM in the data set with H9c2 [2] was 50.6%. Moreover, the inhibition result with Mus musculus [10] was “Active”.
For `COc1ccc(CC(=O)NC[C@]23O[C@H]2[C@@H](O)[C@@H]2C=CO[C@@H](O[C@@H]4O[C@H](CO)[C@@H](O)[C@H](O)[C@H]4O)[C@@H]23)cc1OC`, the viability at 50 µM with H9c2 [1] came out at 59.4%. Moreover, in the data set on H9c2 [2], the viability at 5 µM amounted to 60.9%.
The matching figures for `OC[C@H]1O[C@@H](O[C@@H]2OC=C[C@H]3[C@H](O)[C@@H]4O[C@]4(COc4cccc5ccccc45)[C@@H]23)[C@H](O)[C@@H](O)[C@@H]1O`: 58.8% and 55.5%.
The matching figures for `O=C(/C=C/c1ccccc1)NC[C@]12O[C@H]1[C@@H](O)[C@@H]1C=CO[C@@H](O[C@@H]3O[C@H](CO)[C@@H](O)[C@H](O)[C@H]3O)[C@@H]12`: 61.5% and 57.9%.
For `O=C(NC[C@]12O[C@H]1[C@@H](O)[C@@H]1C=CO[C@@H](O[C@@H]3O[C@H](CO)[C@@H](O)[C@H](O)[C@H]3O)[C@@H]12)c1ccccc1`, the viability at 50 µM in the data set on H9c2 [1] came out at 70%. In the data set on H9c2 [2], the viability at 5 µM was 63.6%. Further, the Activity result in the data set on H9c2 [13] is “Active; Exhibited Superior Protective Efficacy Than Catal-Pol”. Also, the outcome in the data set with Cardiac muscle cell [14] was Active.
On to `OC[C@H]1O[C@@H](O[C@@H]2OC=C[C@H]3[C@H](O)[C@@H]4O[C@]4(COc4ccccc4)[C@@H]23)[C@H](O)[C@@H](O)[C@@H]1O`, for which the viability at 50 µM in the data set on H9c2 [1] was 60.5%. Also, in the data set with H9c2 [2], the viability at 5 µM was 59.1%.
Take `OC[C@H]1O[C@@H](O[C@@H]2OC=C[C@H]3[C@H](O)[C@@H]4O[C@]4(COc4cc(C(F)(F)F)cc(C(F)(F)F)c4)[C@@H]23)[C@H](O)[C@@H](O)[C@@H]1O`: the viability at 50 µM in the data set with H9c2 [1] turned out to be 50.1%. Further, in the data set with H9c2 [2], the viability at 5 µM was 56.1%.
The corresponding values for `COc1ccc(C(=O)NC[C@]23O[C@H]2[C@@H](O)[C@@H]2C=CO[C@@H](O[C@@H]4O[C@H](CO)[C@@H](O)[C@H](O)[C@H]4O)[C@@H]23)cc1OC` are 57.8% and 62.1%.
The matching figures for `O=C(NC[C@]12O[C@H]1[C@@H](O)[C@@H]1C=CO[C@@H](O[C@@H]3O[C@H](CO)[C@@H](O)[C@H](O)[C@H]3O)[C@@H]12)c1ccc2occc2c1`: 58% and 59.1%.
Regarding `O=C(NC[C@]12O[C@H]1[C@@H](O)[C@@H]1C=CO[C@@H](O[C@@H]3O[C@H](CO)[C@@H](O)[C@H](O)[C@H]3O)[C@@H]12)C1CCCCC1`, in the data set with H9c2 [1], the viability at 50 µM was 61.3%. The viability at 5 µM with H9c2 [2] worked out at 60%.
The corresponding values for `OC[C@H]1O[C@@H](O[C@@H]2OC=C[C@H]3[C@H](O)[C@@H]4O[C@]4(COc4ccc(C5CCCCC5)cc4)[C@@H]23)[C@H](O)[C@@H](O)[C@@H]1O` are 56.6% and 60.9%.
Turning to `COc1ccc(OC[C@]23O[C@H]2[C@@H](O)[C@@H]2C=CO[C@@H](O[C@@H]4O[C@H](CO)[C@@H](O)[C@H](O)[C@H]4O)[C@@H]23)cc1`, in the data set with H9c2 [1], the viability at 50 µM was determined as 57.5%. Besides, in the data set with H9c2 [2], the viability at 5 µM came out at 62.5%.
